# Results from patent publication US9526680B2, “Method for searching for malodor control agent, malodor control agent, and malodor control method” (Kao Corporation, priority 2010, dated 2016).
# Assays:
# Assay type in all cases: cell-based
# OR2W1 = biological target: T1, OR2W1 (Homo sapiens, UniProt Q9Y3N9); assay: Luciferase reporter gene assay, OR2W1 expressed in HEK293 cells; details: for Inhibition ratio of OR2W1 response: response to hexanoic acid, test substance added together with hexanoic acid, HEK293
# T1 construct: expressed in transfected cells; host or cells: HEK293
# T1 sequence (Q9Y3N9 1-320): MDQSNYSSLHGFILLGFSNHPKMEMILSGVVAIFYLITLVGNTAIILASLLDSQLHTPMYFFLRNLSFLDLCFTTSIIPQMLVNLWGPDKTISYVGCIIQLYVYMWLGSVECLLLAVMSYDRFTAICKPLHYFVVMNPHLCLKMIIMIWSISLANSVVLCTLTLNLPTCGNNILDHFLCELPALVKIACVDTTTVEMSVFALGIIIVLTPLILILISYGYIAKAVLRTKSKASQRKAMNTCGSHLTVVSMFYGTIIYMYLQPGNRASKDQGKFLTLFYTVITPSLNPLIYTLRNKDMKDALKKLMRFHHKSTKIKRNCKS
# Procedure: (§1) Cloning of human olfactory receptors was performed based on the sequence information registered in GenBank, through PCR with human genomic DNA female (G1521: Promega) as a template. Each of the genes amplified through PCR was inserted into a pENTR vector (Invitrogen) according to an instruction manual. Then, the gene-inserted vector was digested with NotI and AscI, and the obtained fragments were inserted into NotI and AscI sites located downstream of the Flag-Rho tag sequence in the pME18S vector.
# (§2) Each of the 350 types of human olfactory receptors was expressed in HEK293 cells. A reaction solution having a composition shown in Table 2 was prepared on a clean bench, and left to stand for 15 minutes. The solution was dispensed to each well of a 96-well plate (BD). Subsequently, […] cells (100 μL, 3×10^5 cells/cm^2) were seeded in each well and cultured for 24 hours in an incubator at 37° C. and under 5% CO2 conditions.
# (§3) The olfactory receptor expressed in HEK293 cell was conjugated with cell-intrinsic Gas to activate adenylate cyclase, and thereby the level of intracellular cAMP was increased. For the measurement of the response to odor in this study, the luciferase reporter gene assay was used, in which an increase in the amount of intracellular cAMP was monitored by using the emission value originating from firefly luciferase gene (fluc2P-CRE-hygro) as an indicator. Furthermore, a gene product obtained by fusing renilla luciferase gene in the downstream of CMV promoter (hRluc-CMV) was simultaneously introduced, and this was used as an internal standard for correcting an error in the transgenesis efficiency or the number of cells. The medium was removed from the culture prepared in the above-described section 3) by using a Pipetman, and 75 μl of a solution containing an odor substance (1 mM hexanoic acid or 300 μM nonanoic acid) prepared in CD293 medium (Invitrogen) was added thereto. The cells were cultured for 4 hours in a CO2 incubator, and the luciferase gene was sufficiently expressed in the cells. For the measurement of luciferase activity, the measurement was carried out by using a Dual-Glo™ luciferase assay system (Promega) according to the operation manual of the product. A value calculated by dividing the emission value, derived from a firefly luciferase induced by the stimulation with an odor substance, by the emission value in cells that were not-stimulated with an odor substance, was designated as a fold increase, and used as an index of response intensity.
# (§4) OR2W1, OR10A6, OR51E1, OR51I2, and OR51L1 were respectively expressed in HEK293 cells by the same method as that used in Example 1, and a luciferase assay was carried out. In the luciferase assay, hexanoic acid was used as the odorous substance, and test substances were added together with hexanoic acid. The response of the olfactory receptors to hexanoic acid was measured, and a decrease in the receptor response to the addition of test substances was evaluated.
# (§5) The inhibition ratios of the receptor response to test substances were calculated as follows. The emission value (Y) obtained from the cells in which the same receptors were introduced but no odor stimulation was conducted, was subtracted from the emission value derived from firefly luciferase (X) induced by odor stimulation with hexanoic acid alone. Similarly, the emission value (Y) obtained from the cells in which no odor stimulation was conducted, was subtracted from the emission value (Z) caused by stimulation with a mixture of hexanoic acid and a test substance. By the following calculation formula, the inhibitory activity of the test substance to receptor response was calculated based on the increment of the emission value (X−Y) caused by stimulation of hexanoic acid alone. Multiple independent experiments were performed in duplicate, and the average of each experiment was obtained. Inhibition ratio (%)={1−(Z−Y)/(X−Y)}×100 […]
# OR51E1 = biological target: T2, OR51E1 (Homo sapiens, UniProt Q8TCB6); assay: Luciferase reporter gene assay, OR51E1 expressed in HEK293 cells; details: for Inhibition ratio of OR51E1 response: response to hexanoic acid, test substance added together with hexanoic acid, HEK293
# T2 construct: expressed in transfected cells; host or cells: HEK293
# T2 sequence (Q8TCB6 1-318): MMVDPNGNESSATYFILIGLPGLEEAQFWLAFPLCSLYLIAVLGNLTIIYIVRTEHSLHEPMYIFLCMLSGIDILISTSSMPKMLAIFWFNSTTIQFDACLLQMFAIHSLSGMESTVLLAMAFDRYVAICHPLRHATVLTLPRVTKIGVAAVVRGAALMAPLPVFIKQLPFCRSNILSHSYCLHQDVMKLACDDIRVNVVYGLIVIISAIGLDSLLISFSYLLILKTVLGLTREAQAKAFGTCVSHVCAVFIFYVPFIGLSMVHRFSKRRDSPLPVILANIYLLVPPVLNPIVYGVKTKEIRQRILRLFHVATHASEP
# Procedure: as §1, §2, §3, §4, §5
# OR51L1 = biological target: T3, OR51L1 (Homo sapiens, UniProt Q8NGJ5); assay: Luciferase reporter gene assay, OR51L1 expressed in HEK293 cells; details: for Inhibition ratio of OR51L1 response: response to hexanoic acid, test substance added together with hexanoic acid, HEK293
# T3 construct: expressed in transfected cells; host or cells: HEK293
# T3 sequence (Q8NGJ5 1-315): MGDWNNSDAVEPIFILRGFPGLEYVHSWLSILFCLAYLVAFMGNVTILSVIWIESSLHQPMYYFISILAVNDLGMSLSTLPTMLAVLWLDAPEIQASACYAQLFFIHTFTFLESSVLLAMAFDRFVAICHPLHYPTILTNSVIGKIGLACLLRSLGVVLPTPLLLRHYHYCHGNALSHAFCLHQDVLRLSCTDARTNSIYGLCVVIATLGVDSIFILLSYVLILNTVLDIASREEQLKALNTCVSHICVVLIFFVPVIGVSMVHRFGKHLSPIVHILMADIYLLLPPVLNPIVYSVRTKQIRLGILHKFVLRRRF
# Procedure: as §1, §2, §3, §4, §5
# [1] = 1 mM hexanoic acid, test substance 3, 10, 30, 100, 300 μM (FIG. 4)
Molecule,Inhibition ratio of OR2W1 response (OR2W1),Inhibition ratio of OR51E1 response (OR51E1),Inhibition ratio of OR51L1 response (OR51L1),Inhibition of OR2W1 response to hexanoic acid (in words) (OR2W1; [1]),Inhibition of OR51E1 response to hexanoic acid (in words) (OR51E1; [1]),Inhibition of OR51L1 response to hexanoic acid (in words) (OR51L1; [1])
"2,4,6-trimethyl-3-cyclohexene-1-carboxyaldehyde, 3,5,6-trimethyl-3-cyclohexene-1-carboxyaldehyde [Isocyclocitral]",1 (Inhibition ratio: 50% or higher),1 (Inhibition ratio: 50% or higher),1 (Inhibition ratio: 50% or higher),,,
"CC(C)c1cccc(C(C)CC=O)c1 (stereo not drawn) [Florhydral, 3-(3-isopropylphenyl)-butyraldehyde]",1 (Inhibition ratio: 50% or higher),1 (Inhibition ratio: 50% or higher),1 (Inhibition ratio: 50% or higher),in a concentration-dependent manner,in a concentration-dependent manner,in a concentration-dependent manner
